Values quoted from earlier work as cited in patent publication US6660287B1, “Prevention of spoilage of produce using acidified expanded amorphous aluminum silicate impregnated with chlorite” (Bio-Cide International, Inc., priority 1999, dated 2003).

System: mice

Row | SMILES | chromosomal aberrations or increased numbers of micronuclei in the bone marrow (subchronic and acute oral administration, mice (Meier et al.)) | mutagenic potential (mouse, in vivo, po)
1 | [O][Cl+][O-] [chlorine dioxide] | failed to induce any chromosomal aberrations or increased numbers of micronuclei | –
2 | OCl [hypochlorite] | – | weak positive effect
